# From patent US20120214173A1, “Methods of Identifying Modulators of an Ehd Polypeptide” (priority 2007, published 2012)
# Where a chain is given by its changes, count along the chain named. “Also recorded” adds a separate entry of the source.
# Columns and labels:
# T94A mutant of EHD2 = molecular target: T1, T94A mutant of EHD2 (Mus musculus, UniProt Q8BH64, T94A); experiment: ITC nucleotide binding to EHD2 T94A mutant; settings: ITC as in FIG. 1b
# T1 construct: Mouse EHD2 full-length protein and all mutants were expressed as N-terminal His-fusions followed by a PreScission cleavage site; His (N, cleaved yes); made in house; host or cells: Escherichia coli BL21 DE3 Rosetta
# T1 sequence (Q8BH64 1-543 T94A): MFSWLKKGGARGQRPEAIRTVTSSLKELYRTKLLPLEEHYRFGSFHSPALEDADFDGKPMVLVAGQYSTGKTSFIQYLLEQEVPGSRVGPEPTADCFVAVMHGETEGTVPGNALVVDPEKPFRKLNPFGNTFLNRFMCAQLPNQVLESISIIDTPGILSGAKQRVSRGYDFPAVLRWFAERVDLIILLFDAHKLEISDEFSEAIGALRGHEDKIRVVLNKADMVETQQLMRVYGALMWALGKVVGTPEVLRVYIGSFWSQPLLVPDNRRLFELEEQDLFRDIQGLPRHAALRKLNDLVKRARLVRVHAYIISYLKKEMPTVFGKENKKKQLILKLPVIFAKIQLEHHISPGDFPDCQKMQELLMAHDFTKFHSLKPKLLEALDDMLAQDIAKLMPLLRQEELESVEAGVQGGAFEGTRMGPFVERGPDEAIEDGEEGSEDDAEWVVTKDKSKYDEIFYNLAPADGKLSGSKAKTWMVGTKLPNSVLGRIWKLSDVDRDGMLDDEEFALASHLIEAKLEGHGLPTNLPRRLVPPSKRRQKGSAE
# Protocol: Nucleotide hydrolysis was measured as described in FIG. 1f. In vitro tubulation activity of PS liposomes was analysed as described in FIG. 1d. f, EGFP-tagged mutants were over-expressed in HeLa cells. […] For each construct, three independent experiments with ≈50 cells/experiments were analysed.
# (§1) ITC measurements were performed at 10° C. in 20 mM HEPES (pH 7.5), 300 mM NaCl, 2 mM MgCl2. Liposome binding assays were performed as described previously (www.endocytosis.org). Multiple turnover ATPase assays were performed in 20 mM HEPES (pH 7.5), 135 mM NaCl, 15 mM KCl, 1 mM MgCl2 at 30° C. with 10 μM EHD2 (or mutants) as enzyme and 100 μM ATP as substrate, in the absence or presence of 1 mg/ml Folch liposomes (Sigma-Aldrich).
# In small GTPases, the role of positioning the water molecule is assigned to a catalytic glutamine from switch II^26. We studied the role of ATP hydrolysis to gain insights into the function of EHD2 in vivo. […] To confirm the role of ATP hydrolysis in EHD function we re-introduced a catalytic glutamine in the active site, at the position normally found for small GTPases (I157Q). […] Many of these puncta were highly mobile as determined by live-cell microscopy.
# EHD2 = molecular target: T2, EHD2 (Mus musculus, UniProt Q8BH64); experiment: ITC nucleotide binding to EHD2; settings: ITC at 10° C.
# T2 construct: Mouse EHD2 full-length protein and all mutants were expressed as N-terminal His-fusions followed by a PreScission cleavage site; His (N, cleaved yes); made in house; host or cells: Escherichia coli BL21 DE3 Rosetta
# T2 sequence (Q8BH64 1-543): T1 sequence (Q8BH64 1-543 T94A) with A94T
# Protocol: (§2) Amino acid numbering corresponds to mouse EHD2. b, EHD2 binds to adenine nucleotides, as determined by ITC. For clarity, ΔΔH=ΔHn−ΔH1 is plotted. […] Images were acquired close to the basal cell surface. f, Nucleotide hydrolysis was measured by HPLC in the absence (empty symbols) or presence of Folch liposomes (filled symbols). Data represent mean and standard deviation for two (intrinisic reactions) or three (stimulated reactions) independent experiments.
# as §1
# Mouse full-length EHD2 was expressed in bacteria and purified to homogeneity (FIG. 5). The purified protein was nucleotide-free as judged by HPLC analysis. […] It was previously reported that EHDs—despite having a predicted G-domain—bind to adenine nucleotides^15. […] We still refer to this domain as a G-domain because the sequence and fold (see below) are clearly similar to other G-domains. […] Using synthetic liposomes containing various different phosphatidyl-inositols (PI) (FIG. 1c) we observed best binding to liposomes containing PI(4,5)bisphosphate (PIP2).
# EHD2(T72A) = molecular target: T3, EHD2(T72A) (Mus musculus, UniProt Q8BH64, T72A); experiment: ITC nucleotide binding to EHD2(T72A) P-loop mutant; settings: ITC at 10° C.
# T3 construct: Mouse EHD2 full-length protein and all mutants were expressed as N-terminal His-fusions followed by a PreScission cleavage site; His (N, cleaved yes); made in house; host or cells: Escherichia coli BL21 DE3 Rosetta
# T3 sequence (Q8BH64 1-543 T72A): T1 sequence (Q8BH64 1-543 T94A) with T72A, A94T
# Protocol: as §2, §1
# Mouse full-length EHD2 was expressed in bacteria and purified to homogeneity (FIG. 5). The purified protein was nucleotide-free as judged by HPLC analysis. […] It was previously reported that EHDs—despite having a predicted G-domain—bind to adenine nucleotides^15. […] We still refer to this domain as a G-domain because the sequence and fold (see below) are clearly similar to other G-domains. […]
compound,measurement,setting,value
Nc1ncnc2c1ncn2[C@@H]1O[C@H](COP(=O)(O)OP(=O)(O)OP(O)(O)=S)[C@@H](O)[C@H]1O [ATP-γ-S],affinity of the T94A mutant to ATP-γ-S by ITC,T94A mutant of EHD2,nearly wild-type affinity
same,"n (fitted ITC value), nucleotide binding to EHD2",EHD2,0.96
same,Kd,"EHD2; 20 mM HEPES (pH 7.5), 300 mM NaCl, 2 mM MgCl2, read-out: affinity to EHD2 determined by ITC",13 ± 3 µM
same,binding to EHD2(T72A) by ITC,EHD2(T72A),no binding observed; also recorded: prevented binding
